Results published in PMC7052517 (iScience, 2020).
Where two headings read alike, the source gives them in different places.

Columns and labels:
α-Synuclein [1] = biological target: T1, α-Synuclein (Homo sapiens, UniProt P37840); assay: isothermal titration calorimetry; type: binding
α-Synuclein [2] = biological target: T1, α-Synuclein; assay: isothermal titration calorimetry; type: binding; remark: listed apart in the source

## CC/C=C\C/C=C\C/C=C\CCCCCCCC(=O)O [ALA, α-linolenic acid]
α-Synuclein [1]
  Kd: 221 µM

## CCCCCCCC/C=C\CCCCCCCC(=O)O [OA, oleic acid]
α-Synuclein [1]
  Kd: 179 µM

## CC1=C(/C=C/C(C)=C/C=C/C(C)=C/C(=O)O)C(C)(C)CCC1 [RA, retinoic acid]
α-Synuclein [2]
  Kd: 0.5 µM
